From US20140315889A1, “HYDROXAMATE DERIVATIVES FOR HDAC INHIBITOR, AND THE PHARMACEUTICAL COMPOSITION COMPRISING THEREOF” (CHONG KUN DANG PHARMACEUTICAL CORP., priority 2011, published 2014) come the findings set out here.

One series concerns the target HDAC2 (Homo sapiens, UniProt Q92769). As to the kind of experiment: HDAC enzyme activity test, HDAC2. It counts as biochemical. The settings on record: Table 11, eleven HDAC isozymes; read-out: Inhibition ability (IC50) against HDAC2. As to the method:
(§1) Then, 0.3 μg of enzyme and 10 μM of substrate per well were added, reacted at 30° C. for 60 minutes. Thereto, Fluor de Lys® Developer II (BML-KI176) was added and reacted for 30 minutes. […] From the data, the respective IC50 were calculated by GraphPad Prism 4.0 program.

The target in another series is HDAC3 (Homo sapiens, UniProt O15379). Nature of the series: HDAC enzyme activity test, HDAC3. Type of series: biochemical. The following applies: Table 11, eleven HDAC isozymes; read-out: Inhibition ability (IC50) against HDAC3. On the procedure:
as §1

Series [1] relates to collagen-induced arthritis model. As to the kind of experiment: Effectiveness of compound 237 in a collagen-induced arthritis model. Type of series: in vivo. The text has this: 6-week aged male DBA1J mice were used in the experiment. The animal facility was kept at constant temperature and constant humidity with a 12-hr dark/12-hr light cycle, and the animals were allowed to access food and water ad libitum. The animals were acclimated to the cage for 7 days.
Each arthritis-onset animals were selected and then promptly used in the experiments. The experimental animal groups consist of • A. a vehicle-control group administered with only vehicle once a day via s.c. (subcutaneous injection), • B. a compound test group administered with compound 237 in dose of 15 mg/kg q.d. (once a day) via s.c., • C. a compound test group administered with compound 237 in dose of 15 mg/kg b.i.d. (twice a day) via s.c., and • D. a compound test group administered with compound 237 in dose of 30 mg/kg q.d. via s.c.
A solution of compound 237 for administration was prepared using Cremophore EL:Ethanol:Saline=1.5:1.5:7 as a vehicle just before administration. It was administered in a volume of 5 ml/kg via s.c. with each doses of 15 and 30 mg/kg once or twice a day.
Bovine type 2 collagen (Chondrex) and complete Freund's adjuvant (Chondrex) are mixed in 1:1 to become an emulsion. Each 0.1 ml of the obtained emulsion was injected to the tail of each mouse intradermally for immunization. After 21 days, Bovine type 2 collagen (Chondrex) and incomplete Freund's adjuvant (Chondrex) are mixed in 1:1 to become an emulsion. Each 0.1 ml of the obtained emulsion was injected to the hips of each mouse intradermally for boosting. After boosting, the mice were divided in each groups, and administered with compound 237 or only vehicle according to the administration schedule. Their body weights and clinical scores were evaluated three times per week.
From each four feet of a mouse, the clinical scores were evaluated according to the following criterion and added together thereby to determine the clinical score of the mouse (normal, 0; and the most severe edema, 16).
All the results were expressed as mean±SEM, and the experimented groups were compared with each other using one-way ANOVA test (Dunnett's test, p<0.001).

Each structure is given as a SMILES string.

Chain of HDAC3 (O15379 whole entry, species assumed): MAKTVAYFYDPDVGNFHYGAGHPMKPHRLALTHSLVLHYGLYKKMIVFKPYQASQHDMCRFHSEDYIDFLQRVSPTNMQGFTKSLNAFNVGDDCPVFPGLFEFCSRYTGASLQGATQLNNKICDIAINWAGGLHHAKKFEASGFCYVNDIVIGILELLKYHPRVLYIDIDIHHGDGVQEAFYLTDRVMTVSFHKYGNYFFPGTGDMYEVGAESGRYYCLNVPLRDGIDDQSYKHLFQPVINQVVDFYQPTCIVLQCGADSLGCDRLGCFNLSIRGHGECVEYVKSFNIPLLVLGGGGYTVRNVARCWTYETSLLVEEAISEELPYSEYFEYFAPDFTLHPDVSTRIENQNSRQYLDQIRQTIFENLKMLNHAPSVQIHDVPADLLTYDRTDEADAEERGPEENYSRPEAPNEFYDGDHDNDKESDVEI
Chain of HDAC3 (Q9Y618 395-489 partner limits assumed, species assumed): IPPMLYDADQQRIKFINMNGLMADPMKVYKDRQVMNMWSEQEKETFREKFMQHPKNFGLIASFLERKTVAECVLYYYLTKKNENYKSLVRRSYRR
Chain of HDAC2 (Q92769 whole entry, species assumed): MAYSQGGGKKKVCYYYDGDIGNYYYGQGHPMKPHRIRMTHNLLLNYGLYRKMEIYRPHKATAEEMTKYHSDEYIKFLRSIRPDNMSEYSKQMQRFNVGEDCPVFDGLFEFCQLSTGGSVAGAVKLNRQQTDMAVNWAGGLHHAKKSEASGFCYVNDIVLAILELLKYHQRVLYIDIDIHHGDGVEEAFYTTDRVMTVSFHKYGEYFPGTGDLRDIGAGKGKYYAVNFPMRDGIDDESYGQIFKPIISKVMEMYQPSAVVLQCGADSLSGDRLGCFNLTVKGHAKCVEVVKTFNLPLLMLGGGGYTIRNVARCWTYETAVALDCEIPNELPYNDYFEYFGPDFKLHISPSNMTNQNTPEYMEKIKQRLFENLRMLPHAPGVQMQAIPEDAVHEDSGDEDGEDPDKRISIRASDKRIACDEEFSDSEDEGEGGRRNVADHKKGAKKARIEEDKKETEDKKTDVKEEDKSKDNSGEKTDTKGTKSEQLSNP

Consider `CN1CCN(C(=O)N(CCCCCCC(=O)NO)c2ccc(-c3ccc4cnn(C)c4c3)cc2)CC1` [CKD-581, reference compound], for which the IC50 (in general, the concentration that inhibits the measured activity by half) at HDAC2 is 1.58 nM; on HDAC3, 0.693 nM.
`CC1(C)CC(=O)c2c(C(F)(F)F)nn(Cc3ccc(C(=O)NO)cc3)c2C1` [Compound 237, 4-((6,6-dimethyl-4-oxo-3-(trifluoromethyl)-4,5,6,7-tetrahydro-1H-indazol-1-yl)methyl)-N-hydroxybenzamide]: the “clinical score decreased, compared with the control group (only vehicle)” value in series [1] (15 mpk b.i.d. s.c.) is on record as 53%; in series [1] (15 mpk q.d. s.c.) it was 7%; in series [1] (30 mpk q.d. s.c.), 65%. For the same compound, the “body-weight loss or toxic side effect” value in series [1] (during the administration of drug, 15 and 30 mg/kg s.c.) was “body-weight loss or toxic side effect was not observed”.
